# Measured values from ChEMBL document CHEMBL1177798, “Interaction of aminoadamantane derivatives with the influenza A virus M2 channel-docking using a pore blocking model” (Bioorg Med Chem Lett, 2010).
# Target: Matrix protein 2 (Influenza A virus, UniProt P06821)
# Assay: Binding affinity to Influenza A Weybridge(H7N7) virus Matrix protein 2 by spectrophotometry; call rule not given here
# Design: species or system Influenza A virus (A/chicken/FPV/Weybridge(H7N7))
# Matrix protein 2, sequence (P06821 whole entry): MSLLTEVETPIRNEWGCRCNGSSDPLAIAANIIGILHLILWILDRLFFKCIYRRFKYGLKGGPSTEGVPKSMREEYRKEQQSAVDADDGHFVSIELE
smiles,measurement,value
NC1CCCC1 [CYCLOPENTANAMINE],Kd,Not Active
